Reference: patent US11560366B2, “Bicyclo[1.1.1]pentane inhibitors of dual leucine zipper (DLK) kinase for the treatment of disease” (Board of Regents, The University of Texas System, priority 2019, dated 2023)
Read-outs that look alike come from different tables or passages of the source.

What was measured:
[1] = biological target: human DLK (Homo sapiens (Human), UniProt Q12852); assay: DLK Kd determination (KINOMEscan KdELECT, DiscoveRx); type: binding
Protocol: The DLK dissociation constants (Kd) have been determined in the KINOMEscan KdELECT Service at DiscoveRx.
A fusion protein of full length of human DLK (amino acids 1-859) and the DNA binding domain of NFkB was expressed in transiently transfected HEK293 cells. From these HEK 293 cells, extracts were prepared in M-PER extraction buffer (Pierce) in the presence of Protease Inhibitor Cocktail Complete (Roche) and Phosphatase Inhibitor Cocktail Set II (Merck) per manufacturers' instructions. The DLK fusion protein was labeled with a chimeric double-stranded DNA tag containing the NFkB binding site (5′-[sequence]-3′, SEQ ID NO:1) fused to an amplicon for qPCR readout, which was added directly to the expression extract (the final concentration of DNA-tag in the binding reaction is 0.1 nM).
The liganded beads were blocked with excess biotin and washed with blocking buffer (SeaBlock (Pierce), 1% BSA, 0.05% Tween 20, 1 mM DTT) to remove unbound ligand and to reduce nonspecific binding.
Extracts were used directly in binding assays without any enzyme purification steps at a >10,000-fold overall stock dilution (final DNA-tagged enzyme concentration <0.1 nM). Extracts were loaded with DNA-tag and diluted into the binding reaction in a two step process. First extracts were diluted 1:100 in 1× binding buffer (PBS/0.05% Tween 20/10 mM DTT/0.1% BSA/2 μg/ml sonicated salmon sperm DNA) containing 10 nM DNA-tag. This dilution was allowed to equilibrate at room temperature for 15 minutes and then subsequently diluted 1:100 in 1× binding buffer. Test compounds were prepared as 111× stocks in 100% DMSO. Kds were determined using an 11-point 3-fold compound dilution series with three DMSO control points. […] The compounds were then diluted directly into the assays such that the final concentration of DMSO was 0.9%. All reactions performed in polypropylene 384-well plates. Each was a final volume of 0.02 mL. Assays were incubated with shaking for 1 hour at room temperature. Then the beads were pelleted and washed with wash buffer (1×PBS, 0.05% Tween 20) to remove displaced kinase and test compound. […] The kinase concentration in the eluates was measured by qPCR. qPCR reactions were assembled by adding 2.5 μL of kinase eluate to 7.5 μL of qPCR master mix containing 0.15 μM amplicon primers and 0.15 μM amplicon probe.
Test compounds were prepared as 111× stocks in 100% DMSO. Kds were determined using an 11-point 3-fold compound dilution series with three DMSO control points. […] The compounds were then diluted directly into the assays such that the final concentration of DMSO was 0.9%. The Kds were determined using a compound top concentration of 30,000 nM. Kd measurements were performed in duplicate.
Binding constants (Kds) were calculated with a standard dose-response curve using the Hill equation:
The Hill Slope was set to −1.

[2] = Metabolic stability in liver microsomes, rat; type: in vitro ADME; conditions: Sprague Dawley, 0.5 mg/mL microsomes, NADPH, 45 minutes, 37° C., read-out: Half-life in liver microsomes (t1/2, minutes)
Protocol: (§1) The test compound was incubated with liver microsomes (0.5 mg/mL) from CD-1 mouse, Sprague Dawley rat, Beagle dog, Cynomolgus monkey, and human in the presence of NADPH for 45 minutes at 37° C. The % parent remaining over time was determined by LC-MS/MS, using peak area ratios. Half-life (t1/2) was calculated using the following equation: t1/2=ln2/k, where k is the rate constant of parent decay over time (slope of the plot of log[% parent remaining] versus time).

[3] = Metabolic stability in liver microsomes, human; type: in vitro ADME; conditions: 0.5 mg/mL microsomes, NADPH, 45 minutes, 37° C., read-out: Half-life in liver microsomes (t1/2, minutes)
Protocol: as §1

[4] = Metabolic stability in liver microsomes, mouse; type: in vitro ADME, CD-1 mouse; conditions: CD-1, liver microsomes, 0.5 mg/mL microsomes, NADPH, 45 minutes, 37° C., read-out: Half-life in liver microsomes (t1/2, minutes)
Protocol: as §1

[5] = Metabolic stability in liver microsomes, dog; type: in vitro ADME; conditions: Beagle, 0.5 mg/mL microsomes, NADPH, 45 minutes, 37° C., read-out: Half-life in liver microsomes (t1/2, minutes)
Protocol: as §1

[6] = Metabolic stability in liver microsomes, monkey; type: in vitro ADME, Cynomolgus monkey; conditions: 0.5 mg/mL microsomes, NADPH, 45 minutes, 37° C., read-out: Half-life in liver microsomes (t1/2, minutes)
Protocol: as §1

[7] = Rat pharmacokinetics, single dose; type: in vivo, Wistar Han rats; conditions: rat, in vivo, Wistar Han rats
Protocol: Pharmacokinetics for compounds 13, 1a, and 9b were determined using single dosage of Wistar Han rats using techniques that are well known in the art.

[8] = Mouse pharmacokinetics, single dose; type: in vivo, male C57BL/6 mice; conditions: for Kp / unbound brain-to-plasma ratio (Kp,uu): brain and plasma, po, 10 mg/kg, based on AUC; for Kp / unbound brain-to-plasma ratio (Kp,uu) / AUC(0-t) / Cmax / bioavailability: oral dose 10 mg/kg; for Kp: read-out: Brain/Plasma Ratio; for unbound brain-to-plasma ratio (Kp,uu): read-out: Free Brain/Plasma Ratio; for clearance / half-life / Vd: in vivo; for Vd: read-out: Vss; for AUC(0-t) / Cmax / bioavailability: plasma; for clearance in mice, comparison in words / half-life in mice, comparison in words: relative to comparator compounds 13 or 14b; for brain penetration, in words: relative to 13 and 14b and to 1a, 4b, 8a and 9b
[9] = Metabolic stability in liver microsome preparations, overall comparison; type: in vitro ADME; conditions: relative to comparator compounds 13 or 14/14b (WO2018207072)
Protocol: as §1

[10] = full length human DLK fusion protein, qPCR readout, duplicate, read-out: Kd
[11] = male, C57BL/6, mouse, male C57BL/6 mice
[12] = mouse, male C57BL/6 mice, IV dose 0.3 mg/kg (1a, 4b, 13, 14b, 16; IV dose of 8a, 9b not stated)
[13] = male, C57BL/6, mouse, iv, 1 mg/kg

Chain of human DLK (Q12852 whole entry): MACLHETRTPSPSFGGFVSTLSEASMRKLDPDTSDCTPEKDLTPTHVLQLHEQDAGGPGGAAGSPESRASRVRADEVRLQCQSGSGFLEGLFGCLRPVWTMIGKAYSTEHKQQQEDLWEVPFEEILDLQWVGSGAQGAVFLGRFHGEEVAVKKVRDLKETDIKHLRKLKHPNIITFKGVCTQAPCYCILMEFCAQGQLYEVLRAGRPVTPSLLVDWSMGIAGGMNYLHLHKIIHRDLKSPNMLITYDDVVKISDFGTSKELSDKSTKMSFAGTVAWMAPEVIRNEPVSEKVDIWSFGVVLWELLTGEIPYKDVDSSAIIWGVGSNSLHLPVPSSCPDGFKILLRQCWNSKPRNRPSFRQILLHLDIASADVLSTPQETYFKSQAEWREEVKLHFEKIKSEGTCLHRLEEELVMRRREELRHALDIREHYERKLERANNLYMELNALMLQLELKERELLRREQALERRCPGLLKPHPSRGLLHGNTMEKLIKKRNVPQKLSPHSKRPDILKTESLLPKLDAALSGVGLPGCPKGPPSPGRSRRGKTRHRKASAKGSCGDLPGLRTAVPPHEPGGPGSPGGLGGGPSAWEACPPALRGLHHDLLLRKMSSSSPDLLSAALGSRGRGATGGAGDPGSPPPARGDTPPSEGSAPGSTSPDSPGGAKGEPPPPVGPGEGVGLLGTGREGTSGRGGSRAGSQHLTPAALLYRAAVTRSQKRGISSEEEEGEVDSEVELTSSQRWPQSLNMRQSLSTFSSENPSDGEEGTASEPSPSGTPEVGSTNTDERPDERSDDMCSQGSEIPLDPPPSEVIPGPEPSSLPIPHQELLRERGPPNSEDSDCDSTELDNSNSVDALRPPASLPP

Row | SMILES | Kd ([1]; read-out: Kd) [nM] | half-life [2] [min] | half-life [3] [min] | half-life [4] [min] | Kp [8, 11] | unbound brain-to-plasma ratio (Kp,uu) [8, 11] | clearance [8, 12] [mL/min/kg] | half-life [8, 12] [h] | Vd [8, 12] [L/kg] | AUC(0-t) ([8]; mouse, male C57BL/6 mice) [µM·h] | Cmax ([8]; mouse, male C57BL/6 mice) [µM] | bioavailability ([8]; mouse, male C57BL/6 mice) [%] | other results
1 | CC(C)[C@@H](O)c1nc(-c2cnc(N)c(C(F)(F)F)c2)cn1C12CC(N3CCC(F)(F)CC3)(C1)C2 (single isomer, unassigned) [Example 7a] | 0.21 | 566 | 70 | – | – | – | – | – | – | – | – | – | –
2 | Nc1ncc(-c2cn(C34CC(C3)C4)c([C@@H](O)C(F)(F)F)n2)cc1OC(F)(F)F [Compound 13, (R)-1-(4-(6-amino-5-(trifluoromethoxy)-pyridin-3-yl)-1-(bicyclo[1.1.1]pentan-1-yl)-1H-imidazol-2-yl)-2,2,2-trifluoroethan-1-ol, reference compound] | – | 77 | 121 | 221 | 2.97 | 1.54 | 14.1 | 3.53 | 4.6 | 14.4 | 1.95 | 51 | Kd [1, 10]: 1.6 nM; half-life [5]: 109 min; half-life [6]: 56 min; clearance ([7]; IV dose 1 mg/kg): 12.1 mL/min/kg; half-life ([7]; IV dose 1 mg/kg): 9.94 h; Vd ([7]; IV dose 1 mg/kg, read-out: Vss): 7.9 L/kg; AUC(0-t) ([7]; oral dose 3 mg/kg): 7.59 µM·h; Cmax ([7]; oral dose 3 mg/kg): 0.909 µM; bioavailability ([7]; oral dose 3 mg/kg): 86.3%
3 | Nc1ncc(-c2cn(C34CC(F)(C3)C4)c([C@H](O)C(F)(F)F)n2)cc1OC(F)(F)F [Example 1b, (S)-1-(4-(6-amino-5-(trifluoromethoxy)pyridin-3-yl)-1-(3-fluorobicyclo[1.1.1]pentan-1-yl)-1H-imidazol-2-yl)-2,2,2-trifluoroethanol] | – | – | – | – | – | – | – | – | – | – | – | – | Kd [1]: 120 nM
4 | CC(C)[C@H](O)c1nc(-c2cnc(N)c(C(F)(F)F)c2)cn1C12CC(C1)C2 [Compound 14b, (S)-1-(4-(6-amino-5-(trifluoromethyl)pyridin-3-yl)-1-(bicyclo[1.1.1]pentan-1-yl)-1H-imidazol-2-yl)-2-methylpropan-1-ol, reference compound] | – | 23 | 26 | 16 | – | – | 76.7 | 0.7 | 3.72 | 3.62 | 3.38 | 61.2 | Kd [1, 10]: 0.12 nM; half-life [5]: 154 min; half-life [6]: 7 min
5 | Nc1ncc(-c2cn(C34CC(F)(C3)C4)c(C(O)C3CC3)n2)cc1C(F)(F)F (stereo not shown) [Example 6, (4-(6-amino-5-(trifluoromethyl)pyridin-3-yl)-1-(3-fluorobicyclo[1.1.1]pentan-1-yl)-1H-imidazol-2-yl)(cyclopropyl)methanol] | 7.7 | – | – | – | – | – | – | – | – | – | – | – | –
6 | CC(C)[C@@H](O)c1nc(-c2cnc(N)c(OC(F)(F)F)c2)cn1C12CC(N3CCC(F)(F)CC3)(C1)C2 (single isomer, unassigned) [Example 8a] | 0.5 | 201 | 297 | 322 | 0.82 | 0.38 | 7 | 6.7 | 3.8 | 41.4 | 3.54 | 106 | –
7 | Nc1ncc(-c2cn(C34CC(N5CCC(F)(F)CC5)(C3)C4)c(C(O)C3CC3)n2)cc1C(F)(F)F (stereo not shown) [Example 12, (4-(6-amino-5-(trifluoromethyl)pyridin-3-yl)-1-(3-(4,4-difluoropiperidin-1-yl)bicyclo[1.1.1]pentan-1-yl)-1H-imidazol-2-yl)(cyclopropyl)methanol] | 2.9 | – | – | – | – | – | – | – | – | – | – | – | –
8 | Nc1ncc(-c2cn(C34CC(N5CCC(F)(F)CC5)(C3)C4)c(C(O)C3CC3)n2)cc1OC(F)(F)F (stereo not shown) [Example 11, (4-(6-amino-5-(trifluoromethoxy)pyridin-3-yl)-1-(3-(4,4-difluoropiperidin-1-yl)bicyclo[1.1.1]pentan-1-yl)-1H-imidazol-2-yl)(cyclopropyl)methanol] | 3.1 | – | – | – | – | – | – | – | – | – | – | – | –
9 | Nc1ncc(-c2cn(C34CC(F)(C3)C4)c(C(O)C3CC3)n2)cc1OC(F)(F)F (stereo not shown) [Example 5, (4-(6-amino-5-(trifluoromethoxy)pyridin-3-yl)-1-(3-fluorobicyclo[1.1.1]pentan-1-yl)-1H-imidazol-2-yl)(cyclopropyl)methanol] | 5.2 | – | – | – | – | – | – | – | – | – | – | – | –
10 | Nc1ncc(-c2cn(C34CC(F)(C3)C4)c([C@@H](O)C(F)(F)F)n2)cc1C(F)(F)F [Example 2a, (R)-1-(4-(6-amino-5-(trifluoromethyl)pyridin-3-yl)-1-(3-fluorobicyclo[1.1.1]pentan-1-yl)-1H-imidazol-2-yl)-2,2,2-trifluoroethanol] | 4.4 | – | – | – | – | – | – | – | – | – | – | – | –
11 | CC(C)[C@H](O)c1nc(-c2cnc(N)c(C(F)(F)F)c2)cn1C12CC(F)(C1)C2 (single isomer, unassigned) [Example 4b] | 0.29 | 30 | 213 | 71 | 1.72 | 1.06 | 24.5 | 1.86 | 3.3 | 8.67 | 5.42 | 49.2 | half-life [5]: 355 min; half-life [6]: 22 min; clearance in mice, comparison in words [8]: reduced clearance; half-life in mice, comparison in words [8]: longer half-life; microsomal stability, comparison in words [9]: improvements to microsomal stability
12 | CC(C)[C@H](O)c1nc(-c2cnc(N)c(OC(F)(F)F)c2)cn1C12CC(N3CCOCC3)(C1)C2 [Compound 15, (S)-1-(4-(6-amino-5-(trifluoromethoxy)pyridin-3-yl)-1-(3-morpholinobicyclo[1.1.1]pentan-1-yl)-1H-imidazol-2-yl)-2-methylpropan-1-ol, reference compound] | – | 3000 | 80 | 1840 | 0.24 | 0.16 | – | – | – | – | – | – | clearance [8, 13]: 12 mL/min/kg; half-life [8, 13]: 5.4 h; Vd [8, 13]: 4.1 L/kg; brain penetration, in words ([8]; mouse): reduced brain penetration; clearance in mice, comparison in words [8]: reduced clearances; half-life in mice, comparison in words [8]: longer half-lives; microsomal stability, comparison in words [9]: improved microsomal stability
13 | Nc1ncc(-c2cn(C34CC(N5CCOCC5)(C3)C4)c([C@@H](O)C(F)(F)F)n2)cc1OC(F)(F)F [Compound 16, (R)-1-(4-(6-amino-5-(trifluoromethoxy)pyridin-3-yl)-1-(3-morpholinobicyclo[1.1.1]pentan-1-yl)-1H-imidazol-2-yl)-2,2,2-trifluoroethan-1-ol, reference compound] | – | 1500 | 260 | 1040 | 0.21 | 0.16 | 4.4 | 5.2 | 1.8 | 70.3 | 11.9 | 92.1 | Kd [1, 10]: 0.36 nM; brain penetration, in words ([8]; mouse): reduced brain penetration; clearance in mice, comparison in words [8]: reduced clearances; half-life in mice, comparison in words [8]: longer half-lives; microsomal stability, comparison in words [9]: improved microsomal stability
14 | CC(C)C(O)c1nc(-c2cnc(N)c(C(F)(F)F)c2)cn1C12CC(C1)C2 (stereo not shown) [Compound 14, 1-(4-(6-amino-5-(trifluoromethyl)pyridin-3-yl)-1-(bicyclo[1.1.1]pentan-1-yl)-1H-imidazol-2-yl)-2-methylpropan-1-ol, reference compound] | – | 27 | 41 | – | – | – | – | – | – | – | – | – | Kd [1, 10]: 0.3 nM
15 | Nc1ncc(-c2cn(C34CC(N5CCC(F)(F)CC5)(C3)C4)c([C@@H](O)C(F)(F)F)n2)cc1C(F)(F)F (single isomer, unassigned) [Example 10a] | 0.62 | – | – | – | – | – | – | – | – | – | – | – | –
16 | CC(C)[C@H](O)c1nc(-c2cnc(N)c(OC(F)(F)F)c2)cn1C12CC(F)(C1)C2 (single isomer, unassigned) [Example 3b] | 0.24 | – | – | – | – | – | – | – | – | – | – | – | –
